Test results from PubChem BioAssay (NCI).
Values joined by “and” are separate entries in the source; they are usually repeats but may differ in a detail not shown here. Equal entries are not always repeated.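 Protocol summary: plate cells (96-well), add compound at 5 concentrations, incubate 48 h, interpolate endpoints linearly. GI50 is the concentration that inhibits growth by half. TGI denotes the concentration required for complete inhibition of growth.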

Test system: MDA-MB-468 breast
Assay: NCI anticancer screen, dose series, 48 h

Compound	GI50	TGI
CN1CCN(Cc2ccc(NC(=O)c3cncc(C#Cc4cnc(N)c5ccncc45)c3)cc2C(F)(F)F)CC1	1.26 µM	8.24 µM
Cc1ccc(C(=O)Nc2cccc(C(F)(F)F)c2)cc1Nc1nc(-c2cccnc2)nc2c1cnn2C	3.02 µM and 1.78 µM	8.4 µM and 4.48 µM
C[C@]12CC[C@H]3[C@@H](CCC4=CC(=O)CC[C@@H]43)[C@@H]1CC[C@@H]2OC(=O)CCc1ccccc1	> 61.4 µM	> 100 µM
C/C(=N\Nc1ccc2ccccc2n1)c1ccccn1	0.0962 µM	0.705 µM
CC1=C(CCC(C)N(C)Cc2ccc(OCCCN3CCCC3)cc2)C(C)(C)CCC1 (centres undefined)	2.15 µM	5.75 µM
Cc1cc(N/N=C/c2nc(-c3ccc(Br)cc3)oc2C)c2cc(Cl)ccc2n1	> 100 µM	> 100 µM
O=C(/C(=C/c1ccccc1)CN1CCCCC1)c1ccccc1	0.531 µM	1.95 µM
CCC1C(c2cc(OC)c(OC)c(OC)c2)c2cc3c(cc2OC1N1CCCC1)OCO3 (centres undefined)	4.23 µM	25.2 µM
O=C(c1ccccc1)C(CN1CCOCC1)c1ccccc1 (centres undefined)	0.382 µM	1.59 µM
O=[N+]([O-])c1cccc(-c2nc3sccn3c2-c2ccnc(NCCCNS(=O)(=O)c3cccc(F)c3)n2)c1	0.829 µM	6.1 µM
Cc1ccc(NC(=O)/C=C/c2ccccc2)c(C(N)=O)c1	3.17 µM	28.1 µM
O=C1c2c(c3c4ccccc4[nH]c3c3ccc4ccccc4c23)C(=O)N1CCN1CCCCC1	0.38 µM	2.49 µM
CCN(C(=O)N1CCN(c2cc3c(cc2F)c(=O)c(C(=O)O)cn3C2CC2)CC1)c1nc(-c2ccc(C)cc2)cs1	1.13 µM	7.4 µM
CCN1CCC(CCOC)(CN2c3ccccc3Sc3ccc(Cl)cc32)C1 (centres undefined)	1.66 µM	3.37 µM
N#C/C(=C\c1c(-c2ccccc2)[nH]c2ccccc12)S(=O)(=O)c1ccccc1	1.86 µM	> 28.3 µM
N/C(=N\N=C\c1ccc(-c2ccccc2)cc1)N[N+](=O)[O-]	0.935 µM	> 100 µM
CN(C)c1ccc(/C=C\c2cccc[n+]2C)cc1	0.988 µM	5.76 µM
CN(C)c1ccc2c(c1)Sc1cc(N(C)C)ccc1N2C(=O)c1ccccc1	44.7 µM	> 100 µM
C[C@]12CCC3[C@@H](CC[C@@H]4c5nonc5CC[C@]34C)C1CCC(=O)N2 (some centres undefined)	60.2 µM	> 100 µM
Cc1cc(NCc2cc(Nc3ccnc4cc(Cl)ccc34)ccc2F)nc(N2CCCC2)n1	1.33 µM	3.07 µM
CC(C)(C)c1ccc(OCCCCCCN2CCNCC2)cc1	2.38 µM	6.78 µM
C=C1CC[C@@H]2[C@](C)(COC(C)=O)[C@@H](O)CC[C@@]2(C)[C@@H]1COc1ccc2ccc(=O)oc2c1	> 100 µM	> 100 µM
COc1cccc(NC(=O)c2sc3nc4c(cc3c2N)CN(Cc2ccccc2)CC4)c1	2.6 µM	61.4 µM
Clc1cc(Cl)c(OCC#CI)cc1Cl	2.36 µM	7.29 µM

Compound	GI50	TGI
O=C(C1CCCCC1)[C@@H]1[C@]2(C(=O)NC3CCCCC32)[C@@H]2CCCN2[C@@]12C(=O)NC1CCC(Cl)CC12 (some centres undefined)	121 µM	277 µM
Cc1ccc(-c2cc(-c3ccc(C)cc3)nc(NCCNc3ccnc4cc(Cl)ccc34)n2)cc1	1.44 µM	3.06 µM
C=CC(=O)Nc1cccc(C)c1Nc1cc(-c2cccnc2Cc2c(C)c(OC)cc(OC)c2C)ncn1	5.85 µM	24.7 µM
COc1ccc(-c2cc(-c3ccccc3)nc(SCCCC(=O)NO)n2)cc1	1.14 µM	4.52 µM
C=CC(=O)N1CCN(c2ccc3cccc(NC(=O)c4cnc(C)cn4)c3n2)CC1	1.83 µM	7.45 µM
Cc1ccc(C(=O)Nc2ccc(CN3CCN(C)CC3)c(C(F)(F)F)c2)cc1C#Cc1cnc2cccnn12	0.461 µM and 1.5 µM	1.72 µM and 4.22 µM
Cn1c2c(cc(S(=O)(=O)c3ccccc3)c1=O)CCc1c-2cnn1-c1ccc(Cl)cc1	2.39 µM	5.65 µM
CCCn1c(C)nc2c1C(=O)c1ccccc1C2=O	18.7 µM	56.7 µM
Cc1cc2c3ccc(C)[n+](C)c3ccc2n1C	1.12 µM	8.5 µM
CCN=C1C=CC(=C(c2ccc(N)cc2)c2ccc(N(CC)CC)c(C)c2)C=C1	0.193 µM	0.718 µM
CN(C)CCCN1c2ccccc2CCc2ccc(Cl)cc21	1.42 µM	3.23 µM
O=c1[nH]c2ccccc2nc1-c1c[nH]c2ccccc12	> 100 µM	> 100 µM
COc1ccc(-c2n[nH]nc2-c2cc(OC)c3c(c2OC)OCO3)cc1	0.386 µM	1.49 µM
O[C@H]1CO[C@H]2[C@@H]1OC[C@@H]2Oc1ccc(Nc2ccnc(Nc3ccc(O[C@H]4CO[C@H]5[C@@H]4OC[C@@H]5O)c(Cl)c3)n2)cc1Cl	1.18 µM	3.81 µM
O=S(=O)(NCCNC/C=C/c1ccc(Br)cc1)c1cccc2cnccc12	3.3 µM and 5.06 µM	13.8 µM and 18.5 µM
Nc1ncnc2[nH]ncc12	0.219 µM	2.85 µM
CC(CN1CCN(CCOCCO)CC1)CN1c2ccccc2Sc2ccc(Cl)cc21 (centres undefined)	1.69 µM	4.14 µM
COc1ccc(C2CC(c3cc(OC)c(OC)c(OC)c3)=NN2C(C)=O)cc1OCC(=O)Nc1nc2ccc(C(F)(F)F)cc2s1 (centres undefined)	6.12 µM	29.1 µM
CS(=O)(=O)c1ccc(C(=O)Nc2ccc(Cl)c(-c3ccccn3)c2)c(Cl)c1	20.8 µM and 2.16 µM	> 86 µM and 9.69 µM
CC(C)CC(CC1=CCC2CC1C2(C)C)C1=C(O)C(C)(C)C(=O)C(C)(C)C1=O (centres undefined)	0.268 µM	1.33 µM
CCCn1cnc2c(c1=N)C(c1ccc(Cl)cc1)c1sc3c(C)cccc3c1O2 (centres undefined)	0.361 µM	3.9 µM
COC(=O)C(Cc1ccccc1)NC(=O)NC(=O)NC(=O)CI (centres undefined)	4.1 µM	15.1 µM
C=CC(=O)N(C)[C@H]1C[C@H]2OC(C)(C1OC)n1c3ccccc3c3c4c(c5c6ccccc6n2c5c31)C(=O)NC4 (some centres undefined)	0.0571 µM	0.235 µM
